Test results as given in US20260083131A1, “AN HERBICIDAL COMBINATION, COMPOSITION AND METHOD OF CONTROLLING WEEDS USING THE SAME” (priority 2022, published 2026).

Columns and labels:
[1] = test system: Viola arvensis, Bromus spp., Lolium spp., Agropyron repens and Urtica urens; settings: reported by Hoechst et al., 1991; cited from earlier work
[2] = test system: Borreria verticillata; experiment: Greenhouse trial, post-emergence herbicidal activity on Borreria verticillata; assay type: in vivo
Method: (§1) The expected efficacy of a combination of L-glufosinate ammonium and the other herbicides was calculated using the well-established Colby method. Any difference between the observed and “expected” efficacy could be attributed to synergy between the two compounds.
(§2) In the Colby method, the expected (or predicted) response of a combination of herbicides is calculated by taking the product of the observed response for each individual component of the combination when applied alone, divided by 100, and subtracting this value from the sum of the observed response for each component when applied alone. An unexpected enhancement in efficacy of the combination is then determined by comparing the observed response of the combination to the expected (or predicted) response as calculated from the observed response of each individual component alone. If the observed response of the combination is greater than the expected (or predicted) response, or stated conversely, if the difference between the observed and expected response is greater than zero, then the combination is said to be synergistic or unexpectedly effective (Colby, S. R., Weeds, 1967(15), p. 20-22). The Colby method requires only a single dose of each herbicide applied alone and the mixture of both doses. The formula used to calculate the expected efficacy (EE) which was compared with the observed efficacy (OE) to determine the efficacy of the present disclosure is explained hereinbelow:
(§3) Methodology: Greenhouse trials were conducted to evaluate the efficacy of the combination comprising L-glufosinate ammonium and imidazolinone herbicides—imazethapyr, imazamox, imazapic and imazapic+imazapyr—on weeds Borreria verticilata, Eleusine indica, Brachiaria decumbens, Spermacoce latifolia and Glycine max.
(§4) The soil used was sandy clay loam—sand: 68.0%; silt: 8.0%; clay: 24.0%.
(§5) All treatments were in 3 replications per treatment with a spray volume of about 150 L/ha.
The percentage efficacy was calculated after 3, 7, 14, 21, 28 and 35 days of applications (DAA). The target weed was Borreria verticillata, and the concentration of the herbicide and the results are recorded in Table 1.
The percentage efficacy was calculated after 3 days of applications (DAA). The target weed was Borreria verticillata, and the concentration of the herbicide and the results are recorded in Table 2.
The percentage efficacy was calculated after 3, 7, 14, 21, 28 and 35 days of applications (DAA). The target weed was Borreria verticillata, and the concentration of the herbicide and the results are recorded Table 7.

[3] = test system: Spermacoce latifolia; experiment: Greenhouse trial, post-emergence herbicidal activity on Spermacoce latifolia; assay type: in vivo; settings: Table 5
Method: as §1, §2, §3, §4, §5
The percentage efficacy was calculated after 14, 21, 28, 35 days of applications (DAA). The target weed was Spermacoce latifolia, and the concentration of the herbicide and the results are recorded Table 5.

[4] = test system: weedy Brachiaria decumbens; experiment: Greenhouse trial, post-emergence herbicidal activity on Brachiaria decumbens; assay type: in vivo; settings: Table 3
Method: as §1, §2, §3, §4, §5
The percentage efficacy was calculated after 7, 14, 21, 28, 35 days of applications (DAA). The target weed was weedy Brachiaria decumbens, and the concentration of the herbicide and the results are recorded in Table 3.

[5] = test system: weedy Glycine max; experiment: Greenhouse trial, post-emergence herbicidal activity on Glycine max; assay type: in vivo; settings: Table 6
Method: as §1, §2, §3, §4, §5
The percentage efficacy was calculated after 14, 21, 28, 35 days of applications (DAA). The target weed was weedy Glycine max, and the concentration of the herbicide and the results are recorded in Table 6.

[6] = test system: weedy Eleusine indica; experiment: Greenhouse trial, post-emergence herbicidal activity on Eleusine indica; assay type: in vivo; settings: Table 4
Method: as §1, §2, §3, §4, §5
The percentage efficacy was calculated after 7, 14, 21, 28, 35 days of applications (DAA). The target weed was weedy Eleusine indica, and the concentration of the herbicide and the results are recorded in Table 4.

CP(=O)(O)CCC(N)C(=O)O (racemic) [glufosinate, DL-homoalanin-4-yl(methyl)phosphinic acid]
control of weed species Viola arvensis, Bromus spp., Lolium spp., Agropyron repens and Urtica urens [1]: either not combated, or only weakly combated

COCc1cnc(C2=NC(C)(C(C)C)C(=O)N2)c(C(=O)O)c1 (stereo not drawn) [Imazamox, imazamox]
Observed efficacy (%) of Imazamox (21 g a.i./ha) ([2]; 3 DAA, 21 g a.i./ha, Table 2): 10%

Cc1cnc(C2=NC(=O)C(C)(C(C)C)N2)c(C(=O)O)c1 (stereo not drawn) [Imazapic, imazapic]
Observed efficacy (%) of Imazapic (59 g a.i./ha) ([2]; 3 DAA, Table 1): 10%
Observed efficacy (%) of Imazapic (59 g a.i./ha) ([2]; 7 DAA, Table 1): 20%
Observed efficacy (%) of Imazapic (59 g a.i./ha) ([2]; 14 DAA, Table 1): 35%
Observed efficacy (%) of Imazapic (59 g a.i./ha) ([2]; 21 DAA, Table 1): 30%
Observed efficacy (%) of Imazapic (59 g a.i./ha) ([2]; 28 DAA, Table 1): 40%
Observed efficacy (%) of Imazapic (59 g a.i./ha) ([2]; 35 DAA, Table 1): 60%

CCc1cnc(C2=NC(C)(C(C)C)C(=O)N2)c(C(=O)O)c1 (stereo not drawn) [Imazethapyr, imazethapyr]
Observed efficacy (%) of Imazethapyr, (75 g a.i./ha) ([3]; 14 DAA): 30%
Observed efficacy (%) of Imazethapyr, (75 g a.i./ha) ([3]; 21 DAA): 36.7%
Observed efficacy (%) of Imazethapyr, (75 g a.i./ha) ([3]; 28 DAA): 30%
Observed efficacy (%) of Imazethapyr, (75 g a.i./ha) ([3]; 35 DAA): 26.7%
Observed efficacy (%) of Imazethapyr, (75 g a.i./ha) ([4]; 7 DAA): 10%
Observed efficacy (%) of Imazethapyr, (75 g a.i./ha) ([4]; 14 DAA): 10%
Observed efficacy (%) of Imazethapyr, (75 g a.i./ha) ([4]; 21 DAA): 15%
Observed efficacy (%) of Imazethapyr, (75 g a.i./ha) ([4]; 28 DAA): 10%
Observed efficacy (%) of Imazethapyr, (75 g a.i./ha) ([4]; 35 DAA): 5%
Observed efficacy (%) of Imazethapyr, (75 g a.i./ha) ([5]; 14 DAA): 10%
Observed efficacy (%) of Imazethapyr, (75 g a.i./ha) ([5]; 21 DAA): 20%
Observed efficacy (%) of Imazethapyr, (75 g a.i./ha) ([5]; 28 DAA): 20%
Observed efficacy (%) of Imazethapyr, (75 g a.i./ha) ([5]; 35 DAA): 15%
Observed efficacy (%) of Imazethapyr, (75 g a.i./ha) ([6]; 7 DAA): 8.3%
Observed efficacy (%) of Imazethapyr, (75 g a.i./ha) ([6]; 14 DAA): 12%
Observed efficacy (%) of Imazethapyr, (75 g a.i./ha) ([6]; 21 DAA): 12.7%
Observed efficacy (%) of Imazethapyr, (75 g a.i./ha) ([6]; 28 DAA): 12.7%
Observed efficacy (%) of Imazethapyr, (75 g a.i./ha) ([6]; 35 DAA): 10%

CP(=O)(O)CC[C@H](N)C(=O)O.N [L-glufosinate ammonium, ammonium (2S)-2-amino-4-(methylphosphinato)butyric acid]
Observed efficacy (%) of L-glufosinate ammonium, (150 g a.i./ha) ([3]; 14 DAA): 56.7%
Observed efficacy (%) of L-glufosinate ammonium, (150 g a.i./ha) ([3]; 21 DAA): 56.7%
Observed efficacy (%) of L-glufosinate ammonium, (150 g a.i./ha) ([3]; 28 DAA): 58.3%
Observed efficacy (%) of L-glufosinate ammonium, (150 g a.i./ha) ([3]; 35 DAA): 58.3%
Observed efficacy (%) of L-glufosinate ammonium, (150 g a.i./ha) ([4]; 7 DAA): 46%
Observed efficacy (%) of L-glufosinate ammonium, (150 g a.i./ha) ([4]; 14 DAA): 54.3%
Observed efficacy (%) of L-glufosinate ammonium, (150 g a.i./ha) ([4]; 21 DAA): 53.3%
Observed efficacy (%) of L-glufosinate ammonium, (150 g a.i./ha) ([4]; 28 DAA): 48.3%
Observed efficacy (%) of L-glufosinate ammonium, (150 g a.i./ha) ([4]; 35 DAA): 42%
Observed efficacy (%) of L-glufosinate ammonium, (150 g a.i./ha) ([5]; 14 DAA): 60%
Observed efficacy (%) of L-glufosinate ammonium, (150 g a.i./ha) ([5]; 21 DAA): 63.3%
Observed efficacy (%) of L-glufosinate ammonium, (150 g a.i./ha) ([5]; 28 DAA): 63.3%
Observed efficacy (%) of L-glufosinate ammonium, (150 g a.i./ha) ([5]; 35 DAA): 52.7%
Observed efficacy (%) of L-glufosinate ammonium, (150 g a.i./ha) ([6]; 7 DAA): 43.3%
Observed efficacy (%) of L-glufosinate ammonium, (150 g a.i./ha) ([6]; 14 DAA): 41.3%
Observed efficacy (%) of L-glufosinate ammonium, (150 g a.i./ha) ([6]; 21 DAA): 37.3%
Observed efficacy (%) of L-glufosinate ammonium, (150 g a.i./ha) ([6]; 28 DAA): 28.3%
Observed efficacy (%) of L-glufosinate ammonium, (150 g a.i./ha) ([6]; 35 DAA): 25.3%
Observed efficacy (%) of L-glufosinate ammonium (Glufosinate-P-ammonium) (150 g a.i./ha) ([2]; 3 DAA, Table 1): 50%
Observed efficacy (%) of L-glufosinate ammonium (Glufosinate-P-ammonium) (150 g a.i./ha) ([2]; 3 DAA, Table 2): 55%
Observed efficacy (%) of L-glufosinate ammonium (Glufosinate-P-ammonium) (150 g a.i./ha) ([2]; 3 DAA, Table 7): 50%
Observed efficacy (%) of L-glufosinate ammonium (Glufosinate-P-ammonium) (150 g a.i./ha) ([2]; 7 DAA, Table 1): 80%
Observed efficacy (%) of L-glufosinate ammonium (Glufosinate-P-ammonium) (150 g a.i./ha) ([2]; 7 DAA, Table 7): 80%
Observed efficacy (%) of L-glufosinate ammonium (Glufosinate-P-ammonium) (150 g a.i./ha) ([2]; 14 DAA, Table 1): 95%
Observed efficacy (%) of L-glufosinate ammonium (Glufosinate-P-ammonium) (150 g a.i./ha) ([2]; 14 DAA, Table 7): 95%
Observed efficacy (%) of L-glufosinate ammonium (Glufosinate-P-ammonium) (150 g a.i./ha) ([2]; 21 DAA, Table 1): 90%
Observed efficacy (%) of L-glufosinate ammonium (Glufosinate-P-ammonium) (150 g a.i./ha) ([2]; 21 DAA, Table 7): 90%
Observed efficacy (%) of L-glufosinate ammonium (Glufosinate-P-ammonium) (150 g a.i./ha) ([2]; 28 DAA, Table 1): 90%
Observed efficacy (%) of L-glufosinate ammonium (Glufosinate-P-ammonium) (150 g a.i./ha) ([2]; 28 DAA, Table 7): 90%
Observed efficacy (%) of L-glufosinate ammonium (Glufosinate-P-ammonium) (150 g a.i./ha) ([2]; 35 DAA, Table 1): 85%
Observed efficacy (%) of L-glufosinate ammonium (Glufosinate-P-ammonium) (150 g a.i./ha) ([2]; 35 DAA, Table 7): 85%
